Data on one compound can be found in publication PMC9319939, “Siccanin Is a Dual-Target Inhibitor of Plasmodium falciparum Mitochondrial Complex II and Complex III” (Pharmaceuticals, 2022).

Assay [1] has as its system Δsdha-3D7 P. falciparum. The experiment in a line: Drug sensitivity assay, 72 h, PfLDH-based, sdha-disrupted strain. The assay is classed as cell-based. Particulars: Plasmodium falciparum, 3D7, read-out: Growth IC50, Δsdha-3D7. The protocol:
The P. falciparum 3D7 strain was cultured, as described previously, in 3% hematocrit type A human red blood cells (RBCs) in RPMI1640 medium (Invitrogen; San Diego, CA, USA) supplemented with 25 mM sodium hydrogen biocarbonate, 10 μg/mL hypoxanthine, 40 μg/mL gentamicin sulfate, and 0.5% (w/v) Albumax II (Invitrogen) (“complete medium”). Cultures were maintained in a MG-70M multi-gas incubator (Taitec) under the conditions of 5% O2, 5% CO2, and 90% N2 at 37 °C. The medium was replaced daily. Parasitemia was measured by thin blood smears stained with Giemsa. In our previous study, we generated mutant P. falciparum strains expressing either disrupted or full-length versions of the flavoprotein (Fp) subunit (encoded by the Pfsdha gene). […]
Synchronized ring-form parasites (0.3% parasitemia) were prepared in complete medium containing different concentration of various compounds (at a fixed final DMSO concentration of 0.1% (v/v)) and distributed to 96-well plates at 100 μL/well. After 72 h of incubation, parasite growth was monitored by the previously described lactate dehydrogenase (PfLDH)-based assay method; plates were read using a SpectraMax® Paradigm spectrophotometer (Molecular Devices, Inc.; San Jose, CA, USA). EC50 values were calculated using Prism® ver.6.01 (GraphPad; San Diego, CA, USA). […]

Assay [2] deals with P. falciparum complex II (Plasmodium falciparum, UniProt Q8I5S5+Q8IJU2). The experiment in a line: succinate:ubiquinone reductase (SQR) activity, crude mitochondrial fraction, DCIP reduction. The assay is classed as biochemical. Particulars: siccanin 10 μM; read-out: Relative residual activity of SQR. How it is done: (§1) A synchronized parasite culture was grown for 64 h and a crude mitochondrial fraction was prepared from trophozoite-stage cells (as confirmed by Giemsa staining). Infected red blood cells were collected by centrifugation at 800× g for 5 min at 4 °C and incubated for 5 min at room temperature with 40 mL of 0.075% (w/v) saponin in AIM buffer (120 mM KCl, 20 mM NaCl, 10 mM PIPES (1,4-piperazinediethanesulfonic acid) buffer [pH 6.7], 1 mM MgCl2, 5 mM glucose). Released parasites were collected by centrifugation at 2780× g for 7 min at 4 °C and washed three times with AIM buffer. […]
Chain of P. falciparum complex II (Q8IJ66 entry or part of it): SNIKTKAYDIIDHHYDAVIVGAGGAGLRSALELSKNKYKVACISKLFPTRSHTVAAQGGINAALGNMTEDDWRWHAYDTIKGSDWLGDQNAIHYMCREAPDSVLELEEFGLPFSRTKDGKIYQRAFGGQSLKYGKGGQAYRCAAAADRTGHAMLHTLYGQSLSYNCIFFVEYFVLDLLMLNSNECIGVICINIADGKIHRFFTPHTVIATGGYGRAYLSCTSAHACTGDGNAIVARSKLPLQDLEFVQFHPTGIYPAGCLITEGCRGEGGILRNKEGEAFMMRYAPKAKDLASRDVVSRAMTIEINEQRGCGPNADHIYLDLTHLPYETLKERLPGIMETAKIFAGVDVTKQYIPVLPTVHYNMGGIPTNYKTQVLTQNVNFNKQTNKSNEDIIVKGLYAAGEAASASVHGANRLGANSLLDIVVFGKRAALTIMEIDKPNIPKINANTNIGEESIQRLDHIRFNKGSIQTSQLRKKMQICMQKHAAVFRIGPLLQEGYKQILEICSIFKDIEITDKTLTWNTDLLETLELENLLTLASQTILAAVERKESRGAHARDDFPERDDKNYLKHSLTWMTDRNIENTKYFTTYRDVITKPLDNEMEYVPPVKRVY
Chain of P. falciparum complex II (Q8IJU2 entry or part of it): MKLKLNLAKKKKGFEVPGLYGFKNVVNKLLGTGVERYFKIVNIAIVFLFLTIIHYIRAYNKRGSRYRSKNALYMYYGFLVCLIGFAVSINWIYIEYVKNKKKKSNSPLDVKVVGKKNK
Chain of P. falciparum complex II (Q8I5S5 entry or part of it): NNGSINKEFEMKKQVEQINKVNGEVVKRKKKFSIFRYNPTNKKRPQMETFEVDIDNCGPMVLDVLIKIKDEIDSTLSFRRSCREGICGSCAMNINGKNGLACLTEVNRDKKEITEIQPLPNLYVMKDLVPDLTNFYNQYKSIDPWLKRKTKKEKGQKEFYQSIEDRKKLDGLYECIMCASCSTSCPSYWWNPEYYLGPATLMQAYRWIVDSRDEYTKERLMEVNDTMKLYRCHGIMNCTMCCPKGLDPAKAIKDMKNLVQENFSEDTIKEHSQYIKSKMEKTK
(§2) Complex II, DHODH, MQO, NDH2, G3PDH, and dihydroorotate-cytochrome c (DHO-cyt c) reductase activities were measured, as described previously, using a V-660 spectrophotometer (JASCO; Tokyo, Japan). Briefly, complex II activity was measured at 25 °C in a 1 mL reaction mixture containing 45 μM 2,6-dichlorophenolidophenol (DCIP), 100 μM ubiquinone-2 (UQ2), and 2 mM KCN in 50 mM potassium phosphate buffer, pH 8.0. DHODH, MQO, and G3PDH activities were measured at 25 °C in 1 mL of the reaction mixture containing 45 μM DCIP, 100 μM UQ2, and 2 mM KCN in 30 mM Tris-HCl buffer, pH 8.0. […] NDH2 activity was measured at 25 °C in 1 mL of the reaction mixture containing 100 µM UQ1 and 2 mM KCN in 50 mM potassium phosphate buffer, pH 8.0. […]

Assay [3] relates to T. mentagrophytes complex II. Details: method as in PMID 4250609. The following applies: ref [31]; read-out: IC50, T. mentagrophytes enzyme; cited from earlier work.
Assay [4] relates to P. falciparum Dd2. The experiment in a line: Growth inhibition of Dd2 parent. Type of assay: cell-based. Particulars: Plasmodium falciparum, DD2, read-out: Growth inhibition EC50, Dd2. The protocol: P. falciparum 3D7-yDHODH was prepared and maintained as described previously. P. falciparum Dd2, and Dd2-derived mutant strains were kindly provided by David A. Fidock, and maintained at Nagasaki University essentially as described in reference, except without supplementation with WR99210.
Synchronized ring-form parasites (0.3% parasitemia) were prepared in complete medium containing different concentration of various compounds (at a fixed final DMSO concentration of 0.1% (v/v)) and distributed to 96-well plates at 100 μL/well. After 72 h of incubation, parasite growth was monitored by the previously described lactate dehydrogenase (PfLDH)-based assay method; plates were read using a SpectraMax® Paradigm spectrophotometer (Molecular Devices, Inc.; San Jose, CA, USA). EC50 values were calculated using Prism® ver.6.01 (GraphPad; San Diego, CA, USA). Values are presented as the means of three independent experiments.

For assay [5], the system named is type-II NADH dehydrogenase (NDH2). The experiment in a line: NDH2 activity, crude mitochondrial fraction, NADH at 340 nm. Type of assay: biochemical, Plasmodium falciparum. The protocol:
as §1, §2

Molecules are shown by their SMILES.

Usually IC50 stands for the concentration that inhibits the measured activity by half. What is called EC50 is the concentration needed to bring the measured effect to its halfway point. Regarding `Cc1cc(O)c2c(c1)O[C@@]1(C)CC[C@H]3C(C)(C)CCC[C@]34CO[C@@H]2[C@H]41` [Siccanin], the IC50 in assay [1] is 6.13 ± 0.91 µM; in assay [3] it was around 90 nM. The remaining activity at 10 µM in assay [2] is 2.7 ± 6.5%. The EC50 in assay [4] was 12.4 µM. Besides, the “Effect on NDH2 activity” value in assay [5] (10 µM) is reported as “did not inhibit”. The “Relative residual activity of NDH2” value in assay [5] (siccanin 10 μM) is recorded as 101.8 ± 8.1%.
